Laboratory results taken from US10702526B2, “Inhibitors of immune checkpoint modulators and related methods” (eFFECTOR Therapeutics, Inc., priority 2015, dated 2020).

Experiments:
[1] = tested on: PD-1 expression on human Pan-T cells; experiment: PD-1 expression on primary T cells activated with anti-CD3/anti-CD28 beads (flow cytometry); type: cell-based
Method: (§1) About 3×10^5 T cells were activated using anti-CD3/anti-CD28 magnetic beads as per manufacturer's protocol (Dynabeads®, Invitrogen, Carlsbad, Calif.). Briefly, a ratio of fresh primary T cells to beads used to activate the T cells was 1:1 (for every 80,000 T cells, 2 μl of beads were added). Test cells were treated simultaneously with various concentrations of MNK-specific inhibitor Compound 107 (0.01, 0.1, 1, 3 and 10 μM). After 48 hours, culture supernatants were harvested and examined via sandwich ELISA for the presence of IL-2 using human IL-2 ELISA DuoSet® (R&D Systems, Minneapolis, Minn.). […] After fixation, cells were washed twice with flow buffer and re-suspended in flow buffer and assessed for fluorescence using BD Accuri C6 cytometer. Data were analyzed using the C6 cytometer software (BD Biosciences, San Jose, Calif.).

[2] = tested on: LAG3 expression on human Pan-T cells; experiment: LAG3 expression on primary T cells activated with anti-CD3/anti-CD28 beads (flow cytometry); type: cell-based
Method: as §1

[3] = tested on: IL-2 production in primary T cells; experiment: IL-2 ELISA on supernatants of activated primary T cells; type: cell-based, human; details: T cells activated with anti-CD3/anti-CD28 beads
Method: as §1

[4] = tested on: CT26 (mouse colon carcinoma) tumor; experiment: CT26 colon carcinoma allograft tumor model in BALB/c mice; type: in vivo
Method: To evaluate the efficacy of a MNK-specific inhibitor in cancer, an in vivo allograft tumor model was used. Briefly, CT26 (mouse colon carcinoma) cells grown in DMEM supplemented with 10% FBS were harvested during exponential growth and counted for tumor inoculation in immune competent BALB/c mice. Each mouse was inoculated with 0.3×10^6 CT26 tumor cells in the right flank region in a 0.2 ml volume comprising a 1:1 ratio (volume to volume) of cells in growth media (0.1 ml) and Matrigel® matrix (0.1 ml) (BD Biosciences, San Jose Calif.). Tumors were allowed to grow to 100-200 mm^3 prior to study initiation. Before beginning treatment, all animals were weighed and tumor volumes measured using a caliper. Since the tumor volume can affect the effectiveness of any given treatment, mice were randomly assigned into vehicle and test article treatment groups after tumors had reached a similar size. Each study group contained 8 mice, with each group receiving one of the following treatments: (1) Compound 107 in 10% 1-methyl-2-pyrrolidinone and 90% propylene glycol and given at a dose of 1 mg/kg orally, once a day; (2) anti-PD1 (BioXcell, Lebanon, N.H.) in PBS and given at a dose of 0.5 mg/mouse intraperitoneally, once every four days (as described by Wei et al., PLoS One 8:e84927, 2013); (3) a combination of Compound 107 at 1 mg/kg orally, once a day and anti-PD1 at 0.5 mg/mouse intraperitoneally, once every four days; (4) vehicle only control.
During the study, tumor size (for subcutaneous implants) was measured in length and width with a caliper twice a week. The tumor volume was calculated by the formula L×W×W/2 according to NCI standards. Tumor growth inhibition (TGI %) is an indication of anti-tumor effectiveness, which is expressed as follows: TGI (%)=100×(1−(ΔT/ΔC)). ΔT and ΔC were the change in mean tumor volume of the treated and control groups, relative to mean tumor volume at the start of treatment. All experiments continued until group mean tumor volume reached about 2000 to 2,500 mm^3 in size. […] Also, the body weight for each mouse was collected at least once prior to the study start, and twice a week during the study. Body weight change is an indication of tolerability, so percent body weight change is calculated as follows: body weight change (%)=100×(body weightend−body weightstart)/body weightstart. Mice were also observed daily for mortality, mobility, hunched posture, piloerection, or other signs of distress while dosing. If a mouse lost greater than 20% body weight due to toxicity, or the combination of toxicity and tumor burden, it was euthanized. If there was apparent toxicity, the mice were taken off treatment and clinical observation and body weight measurement were done daily.

CT26 tumor = CT26 tumor re-challenge of previously treated mice; type: in vivo, mouse
Method: Previously treated allograft mice that responded to therapy or were tumor-free from each treatment group (8 days post-treatment) were tested for development of long-term immune memory by re-implanting new CT26 tumors and assessing for tumor growth compared to naïve BALB/c mice. Briefly, treated mice were re-implanted and naïve were implanted for the first time with tumor cells in the left flank region in 0.1 ml of growth media and an equal 0.1 ml volume ratio of Matrigel® matrix (1:1 volume to volume ratio), as before. Tumors in these untreated mice were measured following implantation as described herein.

[5] = primary T cells, anti-CD3/anti-CD28 beads, 0.01-10 μM
[6] = 15 days after initiation of dosing
[7] = 22 days after initiation of dosing

SMILES: Cc1cc(Nc2cc(N)ncn2)c(=O)n2c1C(=O)NC21CCCCC1.Cl [Compound 107]
- maximum inhibition of PD-1 expression ([1]; T cells activated with anti-CD3/anti-CD28 beads, 10 μM, 48 hours): 76%
- PD-1 expression [1, 5]: reduced in a dose dependent manner
- reduction in the expression of LAG3 ([2]; CD3/CD28 antibody bead activated T cells, 10 μM): 62%
- LAG3 expression [2, 5]: reduced in a dose dependent manner
- IL-2 production [3]: did not detectably alter IL-2 production
- Mean Tumor Volume (mm^3) ± SEM [4, 6]: 522.3 ± 174.4; mm^3
- Tumor Growth Inhibition (% TGI) [4, 6]: about 34%
- Tumor Growth Inhibition (% TGI) ([4]; 15 days after initiation of dosing, listed as Cmpd 107): 34%
- Mean Tumor Volume (mm^3) ± SEM [4, 7]: 1260.8 ± 499.1 mm^3
- Tumor Growth Inhibition (% TGI) [4, 7]: about 55%
- Tumor Growth Inhibition (% TGI) ([4]; 22 days after initiation of dosing, listed as Cmpd 107): 54%
- Body Weight Change Average % ([4]; final day of study (day 22)): 13.9%
- Mean Tumor Volume (mm^3) ± SEM (CT26 tumor; 8 days after tumor implant): 22.4 ± 4.5 mm^3
- Tumor Formation (CT26 tumor; animals with measurable tumor / group, no further drug treatment): 0/4
